Where two headings read alike, the source gives them in different places.
Columns and labels:
[1] = Turbidity, derived count rate of scattered light; format: physicochemical; details: for Log Count Rate: log of derived count rate
Method in brief: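 One-day room-temperature aggregation at 1 mg/mL in PBS (pH 7.4) preceded measurement; samples then went into 1 mM KCl. Triplicates per sample, two independent experiments averaged.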

[2] = tested on: HIV-1 infection of TZM-bl cells; test: HIV-1 infectivity enhancement assay, β-galactosidase luminescence; format: cell-based; details: for Log10 Inf. rel. to EF-C: log10 of HIV-1 infection of TZM-bl cells relative to EF-C, Fig S15 source data; for Log10 Inf. rel. to EF-C / Log Infectivity: asymmetric std dev errors; for Rel-to EFC / n-fold to virus: Fig S8 panels B, D; for Log Infectivity: Log10 infection relative to EF-C, TZM-bl cells; for Log10 Infection Rel EF-C: HIV-1 infection of TZM-bl cells
[3] = Zeta-potential measurement; format: physicochemical; details: for Zeta-pot. / mV: zeta potential of peptide, Fig S15 source data
Method in brief: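 Samples: 1 mg/mL in PBS pH 7.4 (from DMSO), 1 d at RT, then diluted in 1 mM KCl immediately before measurement. Triplicates, two independent runs averaged.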

[4] = category 1 or 0 from count rate, key not given
[5] = derived count rate of scattered light
[6] = derived count rate of scattered light, mean, std deviation in next column
[7] = derived count rate of scattered light, mean, std deviation in separate column
[8] = Feb2021, Log10 of infectivity relative to EF-C
[9] = Feb2021, figures match the 1.3 µM column
[10] = Feb2021, infectivity relative to virus only
[11] = Feb2021, n-fold enhancement relative to EF-C
[12] = Feb2021, n-fold infectivity relative to EF-C
[13] = Feb2021 run, infectivity n-fold relative to virus alone
[14] = Feb2021 run, log10 of infectivity relative to EF-C
[15] = Feb2021 run, n-fold infectivity relative to EF-C
[16] = infectivity class (low / medium / high) of each library peptide, main list in c1-c6, same classes repeated in sub-lists of sequences containing the hydrophobicity/charge patterns P+,H0,P+,H0,P0,H0,P0, P+,H0,P0,H0,P0,H0,P0, P+,H0,P0,H0
[17] = Fig S8 panels A, C, asymmetric log errors
[18] = Fig S8 panels B, D, turbidity, derived count rate of scattered light
[19] = category 1 or 0 derived from the count rate, key not given
[20] = Feb2021, infectivity enhancement relative to EF-C
[21] = infectivity enhancement relative to EF-C
[22] = infectivity n-fold relative to virus alone
[23] = category derived from the zeta potential
[24] = Feb2021, 1.3 µM value relative to virus only (0 µM)
[25] = Feb2021, log10 of infectivity relative to EF-C
[26] = Feb2021, unrounded values of the 1.3 µM column
[27] = infectivity class (low / medium / high) of the peptide in the sequence-pattern analysis, Fig. S22-A4, class limits not given

Row | Substance | Zeta Count Rate Category ([1]; category 1 / 0, no key given) | Zeta Count Rate / kcps [1, 5] [kcps] | Zeta Count Rate / kcps [1, 6] [kcps] | Log10 of Rel to EFC (Feb2021) [2, 8] | Absolute Infectivity / RLU /s (Feb2021) [2, 9] [RLU /s] | n-fold to virus (Feb2021) [2, 10] | Rel-to EFC (Feb-2021) [2, 12] | infectivity [2, 16] | Log10 Inf. rel. to EF-C [2] | Zeta Pot. / mV [3] [mV] | Zeta category ( +1 = if > 4 mV;-1 = if < -4 mV; 0 = -4mV to 4 mV) [3] | Zeta Pot. / mV ([3]; mean, Std Zeta in next column) [mV] | Zeta Pot. / mV ([3]; mean, Std in separate column) [mV] | Zeta-pot. / mV [3] [mV] | Log Count Rate [1, 17] | Log Count Rate ([1]; Fig S8 panels B, D) | Count Rate [1, 18] | Rel-to EFC [2, 21] | n-fold to virus [2, 22] | also measured
1 | QCKIKQIINM [CK5] | 1 | 20551.06667 | 20551.06667 | -0.4555 | 11186.66667 | 14.72 | 0.3503 | medium | -0.4555 | 10.4 | 1 (+1 = if > 4 mV) | 10.4 | 10.4 | 10.4 |  |  |  |  |  | Zeta Count Rate Category [1, 4]: 1; Zeta Count Rate / kcps [1, 7]: 20551.06667 kcps; Rel-to EFC (Feb-2021) [2, 11]: 0.3503; n-fold to virus (Feb2021) [2, 13]: 14.72; Log10 of Rel to EFC (Feb2021) [2, 14]: -0.4555; Rel-to EFC (Feb-2021) [2, 15]: 0.3503; Zeta category ( +1 = if > 4 mV;-1 = if < -4 mV; 0 = -4mV to 4 mV) ([3]; category from zeta potential): 1 (+1 = if > 4 mV)
2 | CKFKQFFNM [CK14] | 1 | 27264.3 | 27264.3 | -0.3892 | 15720 | 17.15 | 0.4081 | medium | -0.3892 | 15.2 | 1 (+1 = if > 4 mV) | 15.2 | 15.2 | 15.2 | 4.436 | 4.436 | 27264.3 | 0.4081 | 17.15 | Zeta Count Rate Category [1, 19]: 1; Zeta Count Rate / kcps [1, 7]: 27264.3 kcps; Rel-to EFC (Feb-2021) [2, 20]: 0.4081; n-fold to virus (Feb2021) [2, 13]: 17.15; Log10 of Rel to EFC (Feb2021) [2, 14]: -0.3892; Rel-to EFC (Feb-2021) [2, 15]: 0.4081; Zeta category ( +1 = if > 4 mV;-1 = if < -4 mV; 0 = -4mV to 4 mV) [3, 23]: 1 (+1 = if > 4 mV)
3 | KLKQLL [KM27 / psis14] | 1 | 319.9 | 319.9 | -2.131 | 196.7 | 0.3105 | 0.00739 | low | -2.131 | -8.46 | -1 (-1 = if < -4 mV) | -8.46 |  | -8.46 |  |  |  |  |  | Zeta Count Rate Category [1, 19]: 1; Rel-to EFC (Feb-2021) [2, 20]: 0.00739; Zeta category ( +1 = if > 4 mV;-1 = if < -4 mV; 0 = -4mV to 4 mV) [3, 23]: -1 (-1 = if < -4 mV)
4 | CKWKWQW [KB4] |  |  | 7511 |  |  |  | 0.254 | medium | -0.5951 |  | 1 (+1 = if > 4 mV) | 14.7 |  | 14.7 | 3.876 | 3.876 | 7511.27 | 0.254 | 10.67 | Zeta Count Rate Category ([1]; category 1/0, no key printed): 1; n-fold to virus (Feb2021) [2, 24]: 10.67; Log10 of Rel to EFC (Feb2021) [2, 25]: -0.5951; Absolute Infectivity / RLU /s (Feb2021) [2, 26]: 6760 RLU /s
5 | CSISIQI [TM141] |  |  | 10241.1 |  |  |  | 0.05593 |  | -1.252 |  | -1 (-1 = if < -4 mV) | -25.93 |  | -25.93 | 4.01 | 4.01 | 10241.1 | 0.05593 | 2.35 | Zeta Count Rate Category ([1]; category 1/0, no key printed): 1; n-fold to virus (Feb2021) [2, 24]: 2.35; Log10 of Rel to EFC (Feb2021) [2, 25]: -1.252; Absolute Infectivity / RLU /s (Feb2021) [2, 26]: 3087 RLU /s; infectivity [2, 27]: low
6 | CKIKIQINMWQ |  |  |  |  |  |  |  |  |  |  |  |  |  |  |  |  |  |  |  | Log10 Count Rate ([1]; Log10 of derived count rate of scattered light (turbidity)): 3.274; Count Rate / kcps ([1]; derived count rate of scattered light at 633 nm, 173°, from zeta-potential measurement, 0.1 mg/mL in 1 mM KCl after 1 d at 1 mg/mL in PBS, turbidity / microscopic aggregation, mean of triplicate): 1881 kcps; Log10 Count Rate ([1]; log10 of derived count rate of scattered light (turbidity)): 3.274; Log10 Count Rate ([1]; turbidity, Log10 of derived count rate of scattered light, Figure 3A source data): 3.274; Rel-EFC ([2]; 1.3 µM peptide, infection relative to EF-C (QCKIKQIINMWQ = 1)): 0,7; Log10 Infection Rel EFC ([2]; 1.3 µM peptide, log10 of infection relative to EF-C): -0,16; Log Infectivity ([2]; Fig. S7 panel A (plotted against β-sheet content)): -0.155; Log Infectivity ([2]; Fig. S7 panel B (plotted against CR), rounded to two decimals): -0.16; Log10 Infection Rel EF-C ([2]; Log10 of infection rate relative to EF-C, Figure 3A source data): -0.16; Log10 Infection Rel EF-C ([2]; infection rate relative to EF-C, log10, data of Figure 2D): -0.155; Log10 Infection Rel EF-C ([2]; infection rate relative to EF-C, log10, source data of Figure 2C): -0.155; Log10 of Rel to EFC (Feb2021) ([2]; Log10 of infection relative to EF-C, all peptides of FigS16): -0.16; Zeta-Pot. ([3]; zeta potential of peptide assemblies): 13.87; Zeta-Potential / mV ([3]; zeta-potential of peptide, source data of Figure 2C): 12.25 mV; Zeta-Potential / mV ([3]; zeta-potential of the peptide assemblies, mean, Figure 3A source data): 13.87 mV
7 | KIKQII [msis21] | 1 | 122 | 122 | -2.308 | 100 | 0.2069 | 0.004924 |  | -2.308 | -12.67 | -1 (-1 = if < -4 mV) | -12.67 | -12.67 | -12.67 |  |  |  |  |  | Zeta Count Rate Category [1, 4]: 1; Zeta Count Rate / kcps ([1]; derived count rate from zeta measurement, mean): 122 kcps; Zeta Count Rate Category ([1]; key not given): 1; Rel-to EFC (Feb-2021) [2, 11]: 0.004924; infectivity [2, 27]: low; Rel-to EFC (Feb-2021) ([2]; infectivity enhancement relative to EF-C (=1), Feb2021 run): 0.004924; n-fold to virus (Feb2021) ([2]; infectivity n-fold relative to virus only, Feb2021 run): 0.2069; Log10 of Rel to EFC (Feb2021) ([2]; log10 of infectivity relative to EF-C, Feb2021 run): -2.308; Zeta category ( +1 = if > 4 mV;-1 = if < -4 mV; 0 = -4mV to 4 mV) ([3]; category from zeta potential): -1 (-1 = if < -4 mV)

Source: publication PMC10447463, “Data-mining unveils structure–property–activity correlation of viral infectivity enhancing self-assembling peptides” (Nature Communications, 2023)
